Assays:
[1] = test system: HCT116 cells; experiment: In vitro cytotoxicity, MTT assay, HCT116; type: cell-based, human; details: Homo sapiens, HCT-116, HCT116 (colon carcinoma), 48 h continuous drug exposure
Description: (§1) All cell lines used in this study were purchased from the American Type Culture Collection (ATCC, United States). A549, MCF-7, and HeLa were grown in Dulbecco's modified Eagle's medium (containing 10% FBS in a humidified atmosphere of 5% CO2 at 37° C.). HCT116 cells were cultured in Eagle's minimal essential medium (MEM) containing non-essential amino acids, 1 mM sodium pyruvate, […] bovine insulin, and 10% FBS. Cells were trypsinized when sub-confluent from T25 flasks/60 mm dishes and seeded in 96-well plates. The synthesized test compounds were evaluated for their in vitro antiproliferative in four different human cancer cell lines. A protocol of 48 h continuous drug exposure was used, and a MTT cell proliferation assay was used to estimate cell viability or growth. The cell lines were grown in their respective media containing 10% fetal bovine serum and were seeded into 96-well microtiter plates in 200 μL, aliquots at plating densities depending on the doubling time of individual cell lines. The microtiter plates were incubated at 37° C., 5% CO2, 95% air, and 100% relative humidity for 24 h prior to addition of experimental drugs. Aliquots of 2 μL, of the test compounds were added to the wells already containing 198 μL, of cells, resulting in the required final drug concentrations. For each compound, four concentrations (1, 10, 100, and 1000 μM) were evaluated, and each was done in triplicate wells. Plates were incubated further for 48 h, and the assay was terminated by the addition of 10 μL, of 5% MTT and incubated for 60 min at 37° C. Later, the plates were air-dried. Bound stain was subsequently eluted with 100 μL, of DMSO, and the absorbance was read on an multimode plate reader (Tecan M200) at a wavelength of 560 nm. Percent growth was calculated on a plate by plate basis for test wells relative to control wells. The above determinations were repeated thrice. The growth inhibitory effects of the compounds were analyzed by generating dose response curves as a plot of the percentage surviving cells versus compound concentration. The sensitivity of the cancer cells to the test compound was expressed in terms of IC50, a value defined as the concentration of compound that produced 50% reduction as compared to the control absorbance. (A. S. Kumar, M. A. Reddy, N. Jain, C. Kishor, T. R. Murthy, D. Ramesh, B. Supriya, A. Addlagatta, S. V. Kalivendi, B. Sreedhar. Eur. J. Med. Chem. 60 (2013) 305-24).

[2] = test system: A549 cells; experiment: In vitro cytotoxicity, MTT assay, A549; type: cell-based, human; details: Homo sapiens, A549 (non-small cell lung cancer), 48 h continuous drug exposure
Description: as §1

[3] = test system: tubulin; details: by binding at colchicine binding site; Simoni et al., J. Med. Chem. 2008; cited from earlier work
[4] = test system: MCF-7 cells; experiment: In vitro cytotoxicity, MTT assay, MCF-7; type: cell-based, human; details: Homo sapiens, 48 h continuous drug exposure
Description: as §1

[5] = test system: HeLa cells; experiment: In vitro cytotoxicity, MTT assay, HeLa; type: cell-based, human; details: Homo sapiens, HeLa (cervical carcinoma), 48 h continuous drug exposure
Description: as §1

[6] = test system: A549, HeLa, MCF-7 and HCT116 cells; experiment: In vitro cytotoxicity, MTT assay, summary over all four cancer cell lines; type: cell-based; details: Homo sapiens, range over the group of compounds and the four cell lines, read-out: IC50 value range towards all the cancer cell lines
Description: as §1

[7] = MCF7, 48 h, MCF-7 (breast cancer)

Row | Compound | IC50 [1] [µM] | IC50 [2] [µM] | inhibited tubulin polymerization, compared with CA-4 [3] | IC50 [4, 7] [µM] | IC50 [5] [µM] | IC50 [6] [µM] | IC50 ([4]; MCF7, MCF-7 (breast cancer)) [µM]
1 | COc1cc(/C=C\c2ccc(OC)c(N)c2)cc(OC)c1 [S4 (Ca-4 amine), (Z)-5-(3,5-dimethoxystyryl)-2-methoxyaniline, reference compound] | 1.62 | 1.78 | five times stronger than CA-4 | 4.07 | 0.58 | – | –
2 | COc1cc(/C=C\c2cc(OC)c(OC)c(OC)c2)cc(N/C=C\C(=O)c2cc(OC)c(OC)c(OC)c2)c1OC [Compound 11x, (Z)-3-((2,3-dimethoxy-5-((Z)-3,4,5-trimethoxystyryl)phenyl)amino)-1-(3,4,5-trimethoxyphenyl)prop-2-en-1-one] | 0.28 | 3.33 | – | 7.08 | 3.72 | 0.12 to 5.75 | –
3 | COc1cc(C=Cc2cc(OC)c(OC)c(OC)c2)cc(N/C=C\C(=O)c2c[nH]c3ccccc23)c1OC [Compound 11v, (Z)-3-(2,3-dimethoxy-5-(3,4,5-trimethoxystyryl)phenylamino)-1-(1H-indol-3-yl)prop-2-en-1-one] | 1.48 | 0.56 | – | – | 0.67 | 0.12 to 5.75 | 3.02
4 | COc1ccc(/C=C\c2cc(OC)c(OC)c(OC)c2)c(N/C=C\C(=O)c2cc(OC)c(OC)c(OC)c2Br)c1O [Compound 16y, (Z)-1-(2-bromo-3,4,5-trimethoxyphenyl)-3-((2-hydroxy-3-methoxy-6-((Z)-3,4,5-trimethoxystyryl)phenyl)amino)prop-2-en-1-one] | 2.69 | 7.08 | – | 0.19 | 1.78 | 0.18 to 7.33 | –
